Test system: PANC-1 (human pancreatic cancer-derived cell line)
Experiment: MTS assay on Panc-1 (human pancreas carcinoma cell line)
Format: cell-based
Settings: 144 h; for inhibition at 0.15625 µM: read-out: Growth inhibition (%) 0.15625 μM; for IC50: PANC-1, MTS method, cell survival 6 days after exposure, 4-parameter logistic fit; for inhibition at 10 µM: read-out: Growth inhibition (%) 10 μM; for inhibition at 0.3125 µM: read-out: Growth inhibition (%) 0.3125 μM; for inhibition at 30 µM: read-out: Growth inhibition (%) 30 μM
Protocol: Experimental Example: MTS Assay on Panc-1 (Human Pancreas Carcinoma Cell Line) cell line name: PANC-1 derived from: human pancreas glandular cancer purchased from: ATCC product code: CRL-1469 proliferation medium: D-MEM+10% FBS culture environment: 37° C., 5% CO2 seeding density: 5.0×10^5 cells/25 cm^2 solvent control substance: DMSO (HYBRI-MAX®, Sigma-Aldrich Corp.) test substance: Example compound (ID-1-ID-13) A DMSO solution of the test substance was prepared by serially diluting (common ratio 2) each test substance with DMSO.
A solvent control substance sample and a test substance sample were exposed to a human pancreatic cancer-derived cell line (PANC-1), and the survival rate of the cell 6 days later was measured by the MTS method. The measurement was performed 3 times and the average thereof was adopted. The survival rate of the cell in each test substance sample was calculated by the following formula 1 with the value at exposure of the solvent control substance sample as 100% survival rate. […]
survival rate (%)=100×absorbance of each test substance sample/absorbance of solvent control substance sample formula 1 Normalized values calculated by the following formula 2 from the absorbances of each sample at 492 nm and 630 nm and the absorbances of the blank were used as the absorbances in the above-mentioned formula 1. […]
normalized value (ABS492 nm-630 nm)=(ABSsa 492 nm-ABSsa 630 nm)−(ABSbl 492 nm-ABSbl 630 nm) ABSsa 492: absorbance of each sample at wavelength 492 nm ABSsa 630: absorbance of each sample at wavelength 630 nm ABSbl 492: absorbance of blank corresponding to each sample at wavelength 492 nm ABSbl 630: absorbance of blank corresponding to each sample at wavelength 630 nm formula 2 […]
The analysis was performed by using nplr package on R (The R Foundation for Statistical Computing) and estimating the logistic regression curve (4-parameter).

Compound: CC(C)N1CCC(N2C[C@@H]3N(C(=O)/C=C/c4nc(C#CCCCCO)cs4)O[C@H](CC4CC4)C(=O)N3[C@@H](CC(C)(C)C)C2=O)CC1 [ID-99, (3R,6S,9aS)-3-(cyclopropylmethyl)-1-((E)-3-(4-(6-hydroxyhex-1-yn-1-yl)thiazol-2-yl)acryloyl)-8-(1-isopropylpiperidin-4-yl)-6-neopentyltetrahydropyrazino[2,1-c] [1,2,4]oxadiazine-4,7(3H,6H)-dione]
- inhibition at 0.15625 µM (PANC-1, MTS, 6 days): 61.1%

Compound: CNC(=O)CCCC#Cc1csc(/C=C/C(=O)N2O[C@H](CC(C)C)C(=O)N3[C@@H]2CN([C@H]2CCN(CCCCO)C2)C(=O)[C@@H]3CC(C)(C)C)n1 [ID-93, 6-(2-((E)-3-((3R, 6S, 9aS)-8-((S)-1-(4-hydroxybutyl)pyrrolidin-3-yl)-3-isobutyl-6-neopentyl-4,7-dioxohexahydropyrazino[2,1-c][1,2,4]oxadiazin-1(6H)-yl)-3-oxoprop-1-en-1-yl)thiazol-4-yl)—N-methylhex-5-ynamide]
- inhibition at 0.15625 µM (PANC-1, MTS, 6 days): 37.4%

Compound: CC(C)C[C@H]1ON(C(=O)/C=C/c2ncc(Cl)cn2)[C@H]2CN(C3CCN(C)CC3)C(=O)[C@H](CC(C)C)N2C1=O [ID-55, (3R,6S,9aS)-1-((E)-3-(5-chloropyrimidin-2-yl)acryloyl)-3,6-diisobutyl-8-(1-methylpiperidin-4-yl)tetrahydropyrazino[2,1-c][1,2,4]oxadiazine-4,7(3H,6H)-dione]
- IC50: 460 nM
- inhibition at 10 µM (PANC-1, MTS, 6 days): 99.8%

Compound: CC(C)C[C@H]1ON(C(=O)/C=C/c2ccccn2)[C@H]2CN(C3CC4CCC(C3)N4C)C(=O)[C@H](CC(C)C)N2C1=O (stereo partly drawn) [ID-70, (3R,6S,9aS)-3,6-diisobutyl-8-(8-methyl-8-azabicyclo[3.2.1]octan-3-yl)-1-((E)-3-(pyridin-2-yl)acryloyl)tetrahydropyrazino[2,1-c][1,2,4]oxadiazine-4,7(3H,6H)-dione]
- IC50: 2500 nM

Compound: CC(C)C[C@H]1ON(C(=O)/C=C/c2nc3ccccc3s2)[C@H]2CN(C3CCN(CCOCCO)CC3)C(=O)[C@H](CC(C)(C)C)N2C1=O [ID-77, (3R,6S,9aS)-1-((E)-3-(benzo[d]thiazol-2-yl)acryloyl)-8-(1-(2-(2-hydroxyethoxy)ethyl)piperidin-4-yl)-3-isobutyl-6-neopentyltetrahydropyrazino[2,1-c][1,2,4]oxadiazine-4,7(3H,6H)-dione]
- inhibition at 0.3125 µM (PANC-1, MTS, 6 days): 55.2%

Compound: CC(C)N1CCC(N2C[C@@H]3N(C(=O)/C=C/c4cnc5ccccc5n4)O[C@H](CC4CCCCC4)C(=O)N3[C@@H](CC(C)(C)C)C2=O)CC1 [ID-106, (3R,6S,9aS)-3-(cyclohexylmethyl)-8-(1-isopropylpiperidin-4-yl)-6-neopentyl-1-((E)-3-(quinoxalin-2-yl)acryloyl)tetrahydropyrazino[2,1-c][1,2,4]oxadiazine-4,7(3H,6H)-dione]
- inhibition at 0.3125 µM (PANC-1, MTS, 6 days): 29.8%
- inhibition at 1 µM (PANC-1, MTS, 6 days, 1 μM, read-out: Growth inhibition (%) 1 μM): 101%

Compound: CC(C)C[C@H]1ON(C(=O)/C=C/c2nc3cc(OCCCO)ccc3s2)[C@H]2CN(C3CCN(C(C)C)CC3)C(=O)[C@H](CC(C)(C)C)N2C1=O [ID-101, (3R,6S,9aS)-1-((E)-3-(5-(3-hydroxypropoxy)benzo[d]thiazol-2-yl)acryloyl)-3-isobutyl-8-(1-isopropylpiperidin-4-yl)-6-neopentyltetrahydropyrazino[2,1-c][1,2,4]oxadiazine-4,7(3H,6H)-dione]
- inhibition at 0.15625 µM (PANC-1, MTS, 6 days): 65.6%

Compound: CC(C)C[C@H]1ON(C(=O)/C=C/c2nc3c(s2)CCCC3)[C@H]2CN(CCC(N)=O)C(=O)[C@H](CC(C)C)N2C1=O [ID-37, 3-((3R,6S,9aS)-3,6-diisobutyl-4,7-dioxo-1-((E)-3-(4,5,6,7-tetrahydrobenzo[d]thiazol-2-yl)acryloyl)hexahydropyrazino[2,1-c][1,2,4]oxadiazin-8 (1H)-yl)propanamide]
- IC50: 4700 nM
- inhibition at 10 µM (PANC-1, MTS, 6 days): 95.8%

Compound: CC(C)C[C@H]1ON(C(=O)/C=C/c2nc3ccccc3s2)[C@H]2CN([C@@H]3CCN(CCCCO)C3)C(=O)[C@H](CC(C)(C)C)N2C1=O [ID-6, (3R,6S,9aS)-1-((E)-3-(benzo[d]thiazol-2-yl)acryloyl)-8-((R)-1-(4-hydroxybutyl)pyrrolidin-3-yl)-3-isobutyl-6-neopentyltetrahydropyrazino[2,1-c][1,2,4]oxadiazine-4,7(3H,6H)-dione]
- IC50: 130 nM

Compound: CC(C)C[C@H]1ON(C(=O)/C=C/c2nc(C#CC3CCOCC3)cs2)[C@H]2CN([C@@H]3CCN(CCCCO)C3)C(=O)[C@H](CC(C)(C)C)N2C1=O [ID-94, (3R,6S,9aS)-8-((R)-1-(4-hydroxybutyl)pyrrolidin-3-yl)-3-isobutyl-6-neopentyl-1-((E)-3-(4-((tetrahydro-2H-pyran-4-yl)ethynyl)thiazol-2-yl)acryloyl)tetrahydropyrazino[2,1-c] [1,2,4]oxadiazine-4,7-(3H,6H)-dione]
- inhibition at 0.15625 µM (PANC-1, MTS, 6 days): 42.3%

Compound: CC(C)C[C@H]1ON(C(=O)/C=C/c2nc3cc(F)ccc3s2)[C@H]2CN(C3CCN(C)CC3)C(=O)[C@H](CC(C)C)N2C1=O [ID-52, (3R,6S,9aS)-1-((E)-3-(5-fluorobenzo[d]thiazol-2-yl)acryloyl)-3,6-diisobutyl-8-(1-methylpiperidin-4-yl)tetrahydropyrazino[2,1-c][1,2,4.]oxadiazine-4,7(3H,6H)-dione]
- IC50: 480 nM
- inhibition at 10 µM (PANC-1, MTS, 6 days): 101%

Compound: CC(C)C[C@H]1ON(C(=O)/C=C/c2nc3ccccc3s2)[C@H]2CN(C3CN(CCCCO)C3)C(=O)[C@H](CC(C)(C)C)N2C1=O [ID-84, (3R,6S,9aS)-1-((E)-3-(benzo[d]thiazol-2-yl)acryloyl)-8-(1-(4-hydroxybutyl)azetidin-3-yl)-3-isobutyl-6-neopentyltetrahydropyrazino[2,1-c][1,2,4]oxadiazine-4,7(3H,6H)-dione]
- IC50: 110 nM
- inhibition at 0.3125 µM (PANC-1, MTS, 6 days): 88.9%

Compound: CC(C)C[C@H]1ON(C(=O)/C=C/c2ccc3ccccc3n2)[C@H]2CN(CCC(N)=O)C(=O)[C@H](CC(C)C)N2C1=O [ID-20, 3-((3R,6S,9aS)-3,6-diisobutyl-4,7-dioxo-1-((E)-3-(quinolin-2-yl)acryloyl)hexahydropyrazino[2,1-c][1,2,4]oxadiazin-8 (1H)-yl)propanamide]
- IC50: 2400 nM
- inhibition at 30 µM (PANC-1, MTS, 6 days): 100%

Compound: CC(C)C[C@H]1ON(C(=O)/C=C/c2cscn2)[C@H]2CN(C3CCN(C)CC3)C(=O)[C@H](CC(C)C)N2C1=O [ID-54, (3R,6S,9aS)-3,6-diisobutyl-8-(1-methylpiperidin-4-yl)-1-((E)-3-(thiazol-4-yl)acryloyl)tetrahydropyrazino[2,1-c] [1,2,4]oxadiazine-4,7(3H,6H)-dione]
- inhibition at 10 µM (PANC-1, MTS, 6 days): 57%

Compound: CC(C)C[C@H]1ON(C(=O)/C=C/c2ccc(-c3cccc(O)c3)cn2)[C@H]2CN(C3CCN(CCCCO)CC3)C(=O)[C@H](CC(C)(C)C)N2C1=O [ID-80, (3R,6S,9aS)-8-(1-(4-hydroxybutyl)piperidin-4-yl)-1-((E)-3-(5-(3-hydroxyphenyl)pyridin-2-yl)acryloyl)-3-isobutyl-6-neopentyltetrahydropyrazino[2,1-c][1,2,4]oxadiazine-4,7(3H,6H)-dione]
- inhibition at 0.625 µM (PANC-1, MTS, 6 days, 0.625 μM, read-out: Growth inhibition (%) 0.625 μM): 63.2%

Compound: CC(C)C[C@H]1ON(C(=O)/C=C/c2nc3cc(O)ccc3s2)[C@H]2CN(C3CN(CCCCO)C3)C(=O)[C@H](CC(C)(C)C)N2C1=O [ID-8, (3R,6S,9aS)-1-((E)-3-(5-hydroxybenzo[d]thiazol-2-yl)acryloyl)-8-(1-(4-hydroxybutyl)azetidin-3-yl)-3-isobutyl-6-neopentyltetrahydropyrazino[2,1-c][1,2,4]oxadiazine-4,7(3H,6H)-dione]
- IC50: 63 nM

Compound: CC(C)(C)C[C@H]1C(=O)N([C@@H]2CCN(CCCCO)C2)C[C@@H]2N(C(=O)/C=C/c3cnc4ccccc4n3)O[C@H](CCCCNC(=O)OCc3ccccc3)C(=O)N21 [ID-105, benzyl (4-((3R,6S,9aS)-8-((R)-1-(4-hydroxybutyl)pyrrolidin-3-yl)-6-neopentyl-4,7-dioxo-1-((E)-3-(quinoxalin-2-yl)acryloyl)octahydropyrazino[2,1-c][1,2,4]oxadiazin-3-yl)butyl)carbamate]
- inhibition at 30 µM (PANC-1, MTS, 6 days): 98.3%

Compound: CCOC(=O)c1cnc(/C=C/C(=O)N2O[C@H](CC(C)C)C(=O)N3[C@@H]2CN(CCC(N)=O)C(=O)[C@@H]3CC(C)C)s1 [ID-33, ethyl 2-((E)-3-((3R,6S,9aS)-8-(3-amino-3-oxopropyl)-3,6-diisobutyl-4,7-dioxohexahydropyrazino[2,1-c][1,2,4]oxadiazin-1(6H)-yl)-3-oxoprop-1-en-1-yl)thiazole-5-carboxylate]
- IC50: 1100 nM
- inhibition at 10 µM (PANC-1, MTS, 6 days): 99.9%

From patent US20230265104A1, “NOVEL HETEROCYCLIC COMPOUNDS” (PRISM BIOLAB CO., LTD., priority 2020, published 2023)
